Measurements as given in patent US9540649B2, “Method for opening tight junctions” (The Provost, Fellows and Scholars of the College of the …, priority 2007, dated 2017).
“Also recorded” adds a separate entry of the source.

Assays:
[1] = MRI water diffusion in the brains of mice after claudin-5 siRNA; format: in vivo; conditions: 24 and 48 hours post injection
Description: 24 and 48 hours post-delivery of siRNA targeting claudin-5 or a non-targeting siRNA mice were anaesthetised with isofluorane, and physiologically monitored (ECG, respiration and temperature) and placed on an MRI-compatible support cradle, which has a built-in system for maintaining the animal's body temperature at 37° C. The cradle was then positioned within the MRI scanner. Accurate positioning is ensured by acquiring an initial rapid pilot image, which is then used to ensure the correct geometry is scanned in all subsequent MRI experiments. Upon insertion into the MRI scanner, high resolution anatomical images of the brain were acquired (100 μm in-plane and 500 μm through-plane spatial resolution). Water diffusion scans were subsequently undertaken. Using a standard diffusion imaging sequence such as a spin-echo EPI imaging sequence with diffusion gradients (Stejskal-Taner gradients) in order to acquire images over a large range of b-values. In this way, the effect of the technique in the vascular compartment and in the brain parenchymal tissue can be compared. All experiments were carried out on a 7 T Brüker small-bore system with 400 mT/m maximum gradient strength. Image processing and calculation of ADCs was carried out using IDL.

claudin-5 [2] = experiment: Claudin-5 expression in retina after siRNA injection (Western blot, retinal flatmounts); format: in vivo, mice
claudin-5 [3] = experiment: Immunohistochemical analysis of claudin-5 expression and localisation in brain microvessels; format: in vivo, C57/Bl6 mice
Description: Rapid high pressure, high volume tail vein injections were carried out (Kiang et al., 2005). Wild type C57/Bl6 mice of weight 20-30 g were individually restrained inside a 60-ml volume plastic tube. The protruding tail was warmed for 5 minutes prior to injection under a 60-W lamp and the tail vein clearly visualized by illumination from below. 20 micrograms of targeting siRNA, or non-targeting siRNA made up with PBS to a volume in mls of 10% of the body weight in grams or PBS alone, was injected into the tail vein at a rate of 1 ml/sec using a 26-gauge (26 G 3/8) needle. After 24, 48, 72 hours and 1 week, protein was isolated from total brain tissue by crushing brains to a fine powder in liquid N2 and subsequently using lysis buffer containing 62.5 mM Tris, 2% SDS, 10 mM Dithiothreitol, 10 μl protease inhibitor cocktail/100 ml (Sigma Aldrich, Ireland). The homogenate was centrifuged at 10,000 g for 20 mins @4° C., and the supernatant was removed for claudin-5 analysis.
Brain cryosections were blocked with 5% Normal Goat Serum (NGS) in PBS for 20 mins at room temperature. Primary antibody (Rabbit anti-Claudin-5, Zymed, California) was incubated on sections overnight at 4° C. […] A secondary rabbit IgG-Cy3 antibody was incubated with the sections at 37° C. for 2 hours followed by 3 washes with PBS. All sections were counterstained with DAPI for 30 seconds at a dilution of 1:5000 of a stock 1 mg/ml solution. Analysis of stained sections was performed with an Olympus FluoView™ FV1000 Confocal microscope.

Tie-2 = Tie-2 expression following suppression of claudin-5 (Western blot); format: in vivo, C57/Bl6 mice; conditions: any time point post delivery of claudin-5 siRNA
BRB = BRB permeability to Hoechst (562 Da), retinal cryosections and flatmounts; format: in vivo, C57/Bl6 mice
Description: (§1) In order to determine the permeability of brain and retinal microvessels to a molecule of 562 Daltons, mice were perfused through the left ventricle with 500 μl/g body weight of PBS containing 100 μg/ml Hoechst stain H33342 (Sigma Aldrich, Ireland) and 1 mg/ml FITC-Dextran-4 (FD-4) 24, 48, 72 hours and 1 week post-hydrodynamic delivery of claudin-5 siRNA. Following perfusion, the whole brain was dissected and placed in 4% PFA pH 7.4 overnight at 4° C. and subsequently washed 4×15 mins with PBS. Brains were then embedded in 4% agarose and 50 μm sections were cut using a Vibratome®. Whole eyes were removed and fixed with 4% PFA, and following washing with PBS and cryoprotection using a sucrose gradient, 12 μm cryosections were cut using a cryostat. Following analysis of retinal cryosections with an Olympus FluoView™ FV1000 Confocal microscope, images were oriented correctly using Adobe® Photoshop®.

[4] = MRI blood flow/volume (mean transit time, capillary transit time) in brain after claudin-5 siRNA; format: in vivo, mice; conditions: 24 and 48 hours post-high volume tail vein injection; up to 8 animals per group
Description: 48 hours post-delivery of siRNA targeting claudin-5 or a non-targeting siRNA, a solution containing Gd-DTPA injected to the claudin-5 suppressed mice. Gd-DTPA was injected in the tail vein to assess whether Gd-TPA would permeate across the BBB. Following injection of siRNA and using appropriate controls, BBB integrity to a molecule of 742 Daltons (Gd-DTPA) was assessed via MRI, using a dedicated small rodent Bruker BioSpec 70/30 (i.e. 7 T, 30 cm bore) with an actively shielded USR Magnet. Mice were anaesthetised with isofluorane, and physiologically monitored (ECG, respiration and temperature) and placed on an MRI-compatible support cradle, which has a built-in system for maintaining the animal's body temperature at 37° C. The cradle was then positioned within the MRI scanner. Accurate positioning is ensured by acquiring an initial rapid pilot image, which is then used to ensure the correct geometry is scanned in all subsequent MRI experiments. […] Statistical analysis of all densitometric results of combined regions of the Cerebellum, Hippocampus and Cortex was performed using ANOVA, with significance represented by a P value of ≦0.05, and results are presented both graphically and in a quantitative image depicting the rate of Gd-DTPA deposition within the brain. […]
This is calculated from the first moment or mean of the curve. […]

BBB = BBB permeability to Hoechst H33342 (562 Da) and FD-4 (4,400 Da) co-perfusion, brain sections; format: in vivo, C57/Bl6 mice; conditions: for extravasation of FD-4 (4,400 Da) into brain parenchyma: any time point following siRNA injection
Description: as §1

[5] = listed as siRNA targeting claudin-5

## claudin-5 siRNA: siRNA, sense CGUUGGAAAUUCUGGGUCUUU (SEQ ID NO: 1), antisense AGACCCAGAAUUUCCAACGUU (SEQ ID NO: 2) (listed as RNA, chemistry not given here)
[1]
  rate of water diffusion in the brain, MRI: no changes in diffusion
[1]; [5]
  rate of water diffusion in the brain, MRI: no change in the rate of water diffusion
claudin-5 [2]; 24, 48 and 72 hours post injection, vs non-targeting siRNA
  claudin-5 expression in retinal flatmounts, immunohistochemistry: decreased localisation of claudin-5 at the periphery of endothelial cells
claudin-5 [2]; 48 hours post injection
  claudin-5 expression in retinal protein lysates, Western blot: decreased expression
claudin-5 [3]; 24 hours post delivery
  claudin-5 staining pattern in brain microvessels, immunohistochemistry: decreased and non-continuous; also recorded: less intense
claudin-5 [3]; 48 hours post injection
  claudin-5 staining pattern in brain microvessels, immunohistochemistry: striking decrease in expression; also recorded: marked decrease; also recorded: dramatically reduced
claudin-5 [3]; 48 hours post injection, listed as siRNA targeting claudin-5
  claudin-5 staining pattern in brain microvessels, immunohistochemistry: highly fragmented and discontinuous
claudin-5 [3]; 72 hours post-injection
  claudin-5 staining pattern in brain microvessels, immunohistochemistry: evident, yet non-continuous; also recorded: evident, yet not as intense as the control groups; also recorded: still attenuated
Tie-2
  Tie-2 (140 kDa) expression, Western blot: no distinct changes
BRB; 24 and 48 hours post injection
  Hoechst staining in retinal flatmounts: stain extravascular nuclei
BRB; 24 hours post delivery
  extravasation of Hoechst in 12 μm retinal cryosections: Inner Nuclear Layer (INL) appearing stained
BRB; 48 hours post delivery
  extravasation of Hoechst in 12 μm retinal cryosections: distinct Outer Nuclear Layer (ONL) staining
BRB; up to 48 hour post-delivery
  extravasation of Hoechst H33342 from retinal microvessels, retinal cryosections: staining the Inner Nuclear Layer (INL) and Outer Nuclear Layer (ONL) of the retina
[4]
  blood flow / blood volume in major brain vessels and capillaries (MTT, CTT), MRI: no significant differences in blood flow; also recorded: not observing any difference in blood flow or blood volume
BBB; 24 hours and 48 hours post delivery
  extravasation of Hoechst H33342 (562 Da) from brain microvessels: distinct staining of nuclei in surrounding neural and glial cells
BBB; 24 hours and 48 hours post delivery, listed as siRNA targeting claudin-5
  extravasation of Hoechst H33342 (562 Da) from brain microvessels: extravasation of Hoechsct was observed; also recorded: crossed the BBB
BBB; 72 hours or 1 week post-injection
  extravasation of Hoechst H33342 (562 Da) from brain microvessels: not evident
BBB
  extravasation of FD-4 (4,400 Da) into brain parenchyma: No extravasation of FD-4
BBB; [5]
  extravasation of FD-4 (4,400 Da) into brain parenchyma: no extravasation was evident; also recorded: failed to do so
